Read-outs that look alike come from different tables or passages of the source.
Assays:
[1] = biological target: GABA-A receptor; assay: 35S-TBPS binding assay (GABAA receptor binding ability test); parameters: species or system Sprague-Dawley rat; conditions: rat cerebral cortex cell membrane, 5 μM GABA, 2 nM 35S-TBPS; read-out: 35S-TBPS bindng test: IC50 on inhibiting the TBPS binding activity
Procedure: 1.2 Experimental Procedures 1.2.1 Extraction of Cerebral Cortex Cell Membrane:
1. The cerebral cortex of male Sprague-Dawley rat was isolated.
2. A pre-chilled 0.32 M sucrose solution (one tablet of protease inhibitor was added per 100 ml) was added to the cerebral cortex (the volume of sucrose solution was 10 times the volume of the cerebral cortex). The mixture was crushed with a 50 mL glass tissue homogenizer in batches and mixed well.
3. The mixture was centrifuged at 1500 g, 4° C. for 10 minutes, and the supernatant was collected.
4. The mixture was centrifuged at 20000 g, 4° C. for 30 minutes, and the supernatant was discarded.
5. The precipitate was resuspended with the pre-chilled phosphate buffer saline (PBS) (one tablet of protease inhibitor was added per 100 ml). An average of 4 ml of PBS was added per rat, and the mixture was mixed well by a glass tissue homogenizer.
6. The mixture was centrifuged at 10000 g, 4° C. for 10 minutes, and the supernatant was discarded.
7. Steps 5 and 6 were repeated three times.
8. Finally, the precipitate was resuspended with 4 volumes of PBS. The resulting solution was dispensed, frozen in liquid nitrogen, and stored at −80° C.
9. The protein concentration was measured by the bicinchoninic acid (BCA) method.
1.2.2 ^35S-TBPS Binding Assay
1. 230 μL of PBS was added to each well of a well plate with 1.1 ml volume.
2. 60 μL of the cerebral cortex cell membrane (5 μg/μL) solution was added to each well, and the mixture was mixed well.
3. The test compound (3 μL per well) was added, and the plate was incubated at 25° C. for 5 minutes. The DMSO concentration was 1%. The initial compound concentration was 1 μM, and a 3-fold dilution in gradient was carried out to obtain a total of 8 gradients and 2 replicates. 1% DMSO was used as a negative control, and 10 μM P026-2 was used as a positive control.
4. GABA was added at a final concentration of 5 μM, and incubated at 25° C. for 5 minutes. 1 mM GABA solution was formulated, and 1.5 μL of the solution was added to each well.
5. ^35S-TBPS was added at a final concentration of 2 nM. The concentration of isotope mother solution was 9.7 μM. After dilution with PBS for 100 times, 6 μL of the diluted isotope solution was added to each well.
6. The plate was incubated at 4° C. for 20 hours.
7. The FilterMate GF/C plate was pre-treated with 0.5% PEI, and incubated at 4° C. for 1 hour.
8. The FilterMate GF/C plate was washed with Universal Harvester twice, 50 ml PBS each time.
9. The reaction solution was transferred to the GF/C plate, and each well was washed 4 times with 900 μL of PBS.
10. The washed GF/C plate was placed at 55° C. and dried for 10 minutes.
11. 40 μL of scintillation solution was added to each well, and the CPM value was read with TopCount.
1.2.3 Experimental Data Processing Method:
In the experiment, the CPM (counts per minute) value was read with TopCount. According to the readings of the High control (DMSO) and the Low control ([…] of the positive compound) experimental groups, the […] inhibition was calculated based on the following formula: % Inhibition=100×(CPMHigh control−CPMSample)/(CPMHigh control−CPMLow control)
The IC50 of the compound was calculated according to the following 4-parameter nonlinear logic formula: Y=Bottom+(Top−Bottom)/(1+10^((Log IC50−X)*Hill Slope)),
wherein: • X represents the log of compound concentration, • Y represents the 0 Inhibition.
The effect of the compound of the present invention on the TBPS binding activity was determined by the above test, and the measured IC50 values are shown in Table 1.

[2] = Pharmacokinetic assay in Balb/c mice (plasma and brain tissue); assay type: in vivo; conditions: mouse, po, 5 mg/kg p.o., male Balb/c mice; for AUC(0-t): read-out: Area under curve AUC0-t; for AUC(0-inf): read-out: Area under curve AUC0-∞; for half-life: read-out: Half-life t1/2 (converted); for MRT: read-out: Mean residence time MRT; for Tmax: read-out: Peak time tmax; for Cmax: read-out: Plasma concentration Cmax
Procedure: Balb/c mice were used as test animals. The pharmacokinetic behavior in mice (plasma and brain tissue) of the compounds of Examples 2, 3, 5, 6, 9, 13, 59, 60, 61, 63, 71-74, 81, 103, 130, 134, 135, 137, 138, 140, 141, 143, 145 and 146 orally administered at a dose of 5 mg/kg was studied.
Each group had 24 male Balb/c mice. After an overnight fast, Balb/c mice were administered p.o. with the test compound at an administration dose of 5 mg/kg and an administration volume of 10 mL/kg.
0.2 ml of blood was taken from the heart before administration and at 0, 0.5, 1, 2, 4, 6, 8 and 24 hours after administration. The samples were stored in EDTA-K2 tubes, and centrifuged for 6 minutes at 4° C., 6000 rpm to separate the plasma. The plasma samples were stored at −80° C. The mice were sacrificed with CO2, and the whole brain tissue was taken out, weighed, placed in a 2 mL centrifuge tube and stored at −80° C.
1) 160 μL of acetonitrile was added to 40 μL of the plasma sample for precipitation, and then the mixture was centrifuged for 5-20 minutes at 3500×g.
2) 90 μL of acetonitrile containing the internal standard (100 ng/mL) was added to 30 μL of the plasma and brain homogenate samples for precipitation, and then the mixture was centrifuged for 8 minutes at 13000 rpm.
3) 70 μL of the treated supernatant was taken and added to 70 μL of water, and mixed by vortex for 10 minutes. 20 μL of the mixture was taken to analyze the concentration of the test compound by LC/MS/MS. LC/MS/MS analysis instrument: AB Sciex API 4000 Qtrap.
• Liquid chromatography condition: Shimadzu LC-20AD pump. • Chromatographic column: Agilent ZORBAX™ XDB-C18 (50×2.1 mm, 3.5 μm) (note: Aglient ZORBAX™ is a kind of column used in the reverse HPLC); • Mobile phase: Eluent A was 0.10% formic acid in water, and Eluent B was acetonitrile. • Flow rate: 0.4 mL/min • Elution time: 0-4.0 minutes, the eluent is as follows:
The main parameters of pharmacokinetics were calculated by WinNonlin 6.1.

SMILES: Cc1nn(CC(=O)[C@H]2[C@H]3C[C@H]3[C@H]3[C@@H]4CC[C@@H]5C[C@](C)(O)CC[C@@H]5[C@H]4CC[C@@]32C)cc1C#N [Example 37A, 1-(2-((2R,4aS,4bR,6aS,7S,7aS,8aR,8bR,8cR,10aR)-2-Hydroxy-2,6a-dimethyloctadecahydrocyclopropa[4,5]cyclopenta[1,2-a]phenanthren-7-yl)-2-oxoethyl)-3-methyl-1H-pyrazole-4-carbonitrile]
- IC50 [1]: 15.4 nM

SMILES: C[C@@]1(O)CC[C@H]2[C@H](CC[C@@H]3[C@@H]2CC[C@@]2(C)[C@H]3[C@@H]3C[C@@H]3[C@@H]2C(=O)Cn2nc3ccc(F)cc3n2)C1 [Example 92, 2-(5-Fluoro-2H-benzo[d][1,2,3]triazol-2-yl)-1-((2R,4aS,4bR,6aS,7S,7aS,8aR,8bR,8cR,10aR)-2-hydroxy-2,6a-dimethyloctadecahydrocyclopropa[4,5]cyclopenta[1,2-a]phenanthren-7-yl)ethan-1-one]
- IC50 [1]: 10.8 nM

SMILES: C[C@@]1(O)CC[C@H]2[C@H](CC[C@@H]3[C@@H]2CC[C@@]2(C)[C@H]3[C@H](C3CC3)C[C@@H]2C(=O)Cn2cc(C#N)c(Cl)n2)C1 [Example 147, 3-Chloro-1-(2-((3R,5R,8R,9R,10S,13S,14S,15S,17S)-15-cyclopropyl-3-hydroxy-3,13-dimethylhexadecahydro-1H-cyclopenta[a]phenanthren-17-yl)-2-oxoethyl)-1H-pyrazole-4-carbonitrile]
- IC50 [1]: 24.4 nM

SMILES: CC[C@@H]1C[C@H](C(=O)Cn2nc(C#N)cc2C#N)[C@@]2(C)CC[C@H]3[C@@H](CC[C@@H]4C[C@](C)(O)CC[C@@H]43)[C@H]12 [Example 142, 1-(2-((3R,5R,8R,9R,10S,13S,14S,15R,17S)-15-Ethyl-3-hydroxy-3,13-dimethylhexadecahydro-1H-cyclopenta[a]phenanthren-17-yl)-2-oxoethyl)-1H-pyrazole-3,5-dicarbonitrile]
- IC50 [1]: 16.2 nM

SMILES: CCOC(=O)c1cnn(CC(=O)[C@H]2[C@H]3C[C@H]3[C@H]3[C@@H]4CC[C@@H]5C[C@](C)(O)CC[C@@H]5[C@H]4CC[C@@]32C)c1 [Example 51, Ethyl 1-(2-((2R,4aS,4bR,6aS,7S,7aS,8aR,8bR,8cR,10aR)-2-hydroxy-2,6a-dimethyloctadecahydrocyclopropa[4,5]cyclopenta[1,2-a]phenanthren-7-yl)-2-oxoethyl)-1H-pyrazole-4-carboxylate]
- IC50 [1]: 5 nM

SMILES: Cc1cnn(CC(=O)[C@H]2[C@H]3C[C@H]3[C@H]3[C@@H]4CC[C@@H]5C[C@](C)(O)CC[C@@H]5[C@H]4CC[C@@]32C)c1 [Example 95, 1-((2R,4aS,4bR,6aS,7S,7aS,8aR,8bR,8cR,10aR)-2-Hydroxy-2,6a-dimethyloctadecahydrocyclopropa[4,5]cyclopenta[1,2-a]phenanthren-7-yl)-2-(4-methyl-1H-pyrazol-1-yl)ethan-1-one]
- IC50 [1]: 34.1 nM

SMILES: C[C@@H]1C[C@H](C(=O)CN2C(=O)CSC2=O)[C@@]2(C)CC[C@H]3[C@@H](CC[C@@H]4C[C@](C)(O)CC[C@@H]43)[C@H]12 [Example 136, 3-(2-((3R,5R,8R,9R,10S,13S,14S,15R,17S)-3-Hydroxy-3,13,15-trimethylhexadecahydro-1H-cyclopenta[a]phenanthren-17-yl)-2-oxoethyl)thiazolidine-2,4-dione]
- IC50 [1]: 26.5 nM

SMILES: C[C@@H]1C[C@H](C(=O)COc2cnc(C(F)(F)F)nc2)[C@@]2(C)CC[C@H]3[C@@H](CC[C@@H]4C[C@](C)(O)CC[C@@H]43)[C@H]12 [Example 150, 1-((3R,5R,8R,9R,10S,13S,14S,15R,17S)-3-Hydroxy-3,13,15-trimethylhexadecahydro-1H-cyclopenta[a]phenanthren-17-yl)-2-((2-(trifluoromethyl)pyrimidin-5-yl)oxy)ethan-1-one]
- IC50 [1]: 8.8 nM

SMILES: CC[C@@H]1C[C@H](C(=O)Cn2cc(C#N)cn2)[C@@]2(C)CC[C@H]3[C@@H](CC[C@@H]4C[C@](C)(O)CC[C@@H]43)[C@H]12 [Example 81, 1-(2-((3R,5R,8R,9R,10S,13S,14S,15R,17S)-15-Ethyl-3-hydroxy-3,13-dimethylhexadecahydro-1H-cyclopenta[a]phenanthren-17-yl)-2-oxoethyl)-1H-pyrazole-4-carbonitrile]
- AUC(0-t) ([2]; brain tissue): 1440 ng·h/mL
- AUC(0-inf) ([2]; brain tissue): 2230 ng·h/mL
- half-life ([2]; brain tissue): 335 min
- MRT ([2]; brain tissue): 7.97 h
- Tmax ([2]; brain tissue): 1 h
- Cmax ([2]; brain tissue): 296 ng/mL
- AUC(0-t) ([2]; plasma): 4640 ng·h/mL
- AUC(0-inf) ([2]; plasma): 5920 ng·h/mL
- half-life ([2]; plasma): 158 min
- MRT ([2]; plasma): 4.96 h
- Tmax ([2]; plasma): 1 h
- Cmax ([2]; plasma): 1150 ng/mL

SMILES: C[C@@]1(O)CC[C@H]2[C@H](CC[C@@H]3[C@@H]2CC[C@@]2(C)[C@H]3[C@@H]3C[C@@H]3[C@@H]2C(=O)Cn2cc([N+](=O)[O-])cn2)C1 [Example 103, 1-((2R,4aS,4bR,6aS,7S,7aS,8aR,8bR,8cR,10aR)-2-Hydroxy-2,6a-dimethyloctadecahydrocyclopropa[4,5]cyclopenta[1,2-a]phenanthren-7-yl)-2-(4-nitro-1H-pyrazol-1-yl)ethan-1-one]
- AUC(0-t) ([2]; brain tissue): 1680 ng·h/mL
- AUC(0-inf) ([2]; brain tissue): 1710 ng·h/mL
- half-life ([2]; brain tissue): 67.2 min
- MRT ([2]; brain tissue): 2.07 h
- Tmax ([2]; brain tissue): 1 h
- Cmax ([2]; brain tissue): 626 ng/mL
- AUC(0-t) ([2]; plasma): 1030 ng·h/mL
- AUC(0-inf) ([2]; plasma): 1060 ng·h/mL
- half-life ([2]; plasma): 71.4 min
- MRT ([2]; plasma): 2.12 h
- Tmax ([2]; plasma): 1 h
- Cmax ([2]; plasma): 386 ng/mL

Reference: patent US12139508B2, “Steroid derivative regulators, method for preparing the same, and uses thereof” (JIANGSU HANSOH PHARMACEUTICAL GROUP CO., LTD., priority 2018, dated 2024)
